Data taken from US10160747B2, “Compounds and methods for kinase modulation, and indications therefor” (Plexxikon Inc., priority 2016, dated 2018).

Experiments:
c-KIT = molecular target: T1, c-KIT (Homo sapiens, UniProt P10721); assay: c-KIT recombinant enzyme kinase assay (AlphaScreen); assay type: biochemical; settings: 100 ATP, 8 pt
T1 construct: purchased Millipore 14-559K
Procedure: (§1) In order to determine the effect of compounds on FLT3 catalytic activity, kinase assays using recombinant enzymes and AlphaScreen® technology have been established. The catalytic activity of c-kit activity was also measured to determine selectivity of the compounds. When the kinases are catalytically active, they phosphorylate a biotinylated peptide substrate on tyrosine residues. Using AlphaScreen® technology, the ability of the compounds to affect the catalytic activity of the kinases can be measured quantitatively. The peptide substrate is immobilized by the AlphaScreen® Streptavidin Donor beads and, upon phosphorylation by a tyrosine kinase, can bind to AlphaScreen® Anti-Phosphotyrosine (PY20) Acceptor beads. Upon excitation of these beads with laser light at 680 nm, singlet oxygen is produced. This singlet oxygen is rapidly quenched, unless the AlphaScreen® Anti-Phosphotyrosine (PY20) Acceptor beads are in close proximity, in which case a proximity signal can be measured at 580 nm. In the presence of catalytic activity, there is a very strong proximity signal. Selective kinase inhibitors affect a decrease in this proximity signal through a decrease in tyrosine phosphorylation of the peptide substrate.
(§2) The assay was performed as summarized below.
(§3) Poly (Glu4-Tyr) Peptide, biotin conjugate [Biotin-GG(EEEEY)10EE] (SEQ ID NO: 4)
(§4) Final concentration=30 nM
(§5) Adenosine Triphosphate (ATP)
(§6) Final concentration for IC50 determination=10 μM (FLT3-D835Y or FLT3-ITD) or 100 μM (c-KIT)
(§7) AlphaScreen® Phosphotyrosine (PY20) Assay Kit
(§8) Final concentration=10 μg/mL
(§9) Dilute compounds in DMSO to 20× final concentration.
(§10) Add 1 μL of compound to each well of 384 well reaction plate (Perkin Elmer #6005359).
(§11) Mix enzyme and Poly (Glu4-Tyr) Peptide substrate at 1.33× final concentration in assay buffer.
(§12) Mix ATP at 5× final concentration in assay buffer.
(§13) Add 15 μL enzyme/substrate mixture to the reaction plate.
(§14) Add 4 μL of ATP to the reaction plate.
(§15) Mix Streptavidin Donor beads at 6× final concentration in Stop/Detection buffer.
(§16) Add 5 μL Streptavidin Donor beads to the reaction plate. Centrifuge 1 minute, shake to mix, and incubate at room temperature for 20 minutes.
(§17) Mix Anti-Phosphotyrosine (PY20) Acceptor beads at 6× final concentration in Stop/Detection buffer.
(§18) Add 5 μL Anti-Phosphotyrosine (PY20) beads to the reaction plate.
(§19) Centrifuge 1 minute, shake to mix, and incubate at room temperature for 60 minutes.
(§20) Read plate on Wallac EnVision™ 2103 Multilabel Reader.

FLT3-ITD = molecular target: T2, FLT3-ITD (Homo sapiens, UniProt P36888); assay: FLT3-ITD recombinant enzyme kinase assay (AlphaScreen); assay type: biochemical; settings: 8 pt; read-out: FLT3_ITD 8 pt: IC50
T2 sequence (P36888 1-993): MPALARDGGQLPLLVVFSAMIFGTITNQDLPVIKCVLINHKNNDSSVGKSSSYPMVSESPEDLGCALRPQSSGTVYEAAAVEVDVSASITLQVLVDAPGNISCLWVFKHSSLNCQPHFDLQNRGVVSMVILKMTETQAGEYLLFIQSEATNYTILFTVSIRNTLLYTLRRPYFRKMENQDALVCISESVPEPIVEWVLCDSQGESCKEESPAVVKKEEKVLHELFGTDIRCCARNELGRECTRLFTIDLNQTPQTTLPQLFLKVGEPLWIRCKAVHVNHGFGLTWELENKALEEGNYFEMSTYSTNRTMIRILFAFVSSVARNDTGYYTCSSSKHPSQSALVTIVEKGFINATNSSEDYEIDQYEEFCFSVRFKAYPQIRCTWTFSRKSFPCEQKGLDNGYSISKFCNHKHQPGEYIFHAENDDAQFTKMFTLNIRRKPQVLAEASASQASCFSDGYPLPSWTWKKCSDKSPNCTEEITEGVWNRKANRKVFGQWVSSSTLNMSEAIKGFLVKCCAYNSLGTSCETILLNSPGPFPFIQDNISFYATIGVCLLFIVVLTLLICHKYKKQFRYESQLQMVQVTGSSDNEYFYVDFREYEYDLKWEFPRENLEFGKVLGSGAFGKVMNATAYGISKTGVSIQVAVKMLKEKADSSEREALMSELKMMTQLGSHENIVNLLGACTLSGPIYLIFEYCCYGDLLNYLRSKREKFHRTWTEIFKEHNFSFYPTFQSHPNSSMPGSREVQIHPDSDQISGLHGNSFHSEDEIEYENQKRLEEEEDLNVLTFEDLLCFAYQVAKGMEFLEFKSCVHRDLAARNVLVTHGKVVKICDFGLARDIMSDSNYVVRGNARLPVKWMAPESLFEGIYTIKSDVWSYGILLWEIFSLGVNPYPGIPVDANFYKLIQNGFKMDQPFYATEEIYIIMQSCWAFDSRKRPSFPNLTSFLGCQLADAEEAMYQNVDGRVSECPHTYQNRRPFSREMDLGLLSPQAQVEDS
Procedure: as §1, §2, §3, §4, §5, §6, §7, §8, §9, §10, §11, §12, §13, §14, §15, §16, §17, §18, §19, §20

FLT3-D835Y = molecular target: T3, FLT3-D835Y (Homo sapiens, UniProt P36888, D835Y); assay: FLT3-D835Y recombinant enzyme kinase assay (AlphaScreen); assay type: biochemical; settings: 8 pt, GMean
T3 construct: purchased Invitrogen PV3967
T3 sequence (P36888 27-993 D835Y): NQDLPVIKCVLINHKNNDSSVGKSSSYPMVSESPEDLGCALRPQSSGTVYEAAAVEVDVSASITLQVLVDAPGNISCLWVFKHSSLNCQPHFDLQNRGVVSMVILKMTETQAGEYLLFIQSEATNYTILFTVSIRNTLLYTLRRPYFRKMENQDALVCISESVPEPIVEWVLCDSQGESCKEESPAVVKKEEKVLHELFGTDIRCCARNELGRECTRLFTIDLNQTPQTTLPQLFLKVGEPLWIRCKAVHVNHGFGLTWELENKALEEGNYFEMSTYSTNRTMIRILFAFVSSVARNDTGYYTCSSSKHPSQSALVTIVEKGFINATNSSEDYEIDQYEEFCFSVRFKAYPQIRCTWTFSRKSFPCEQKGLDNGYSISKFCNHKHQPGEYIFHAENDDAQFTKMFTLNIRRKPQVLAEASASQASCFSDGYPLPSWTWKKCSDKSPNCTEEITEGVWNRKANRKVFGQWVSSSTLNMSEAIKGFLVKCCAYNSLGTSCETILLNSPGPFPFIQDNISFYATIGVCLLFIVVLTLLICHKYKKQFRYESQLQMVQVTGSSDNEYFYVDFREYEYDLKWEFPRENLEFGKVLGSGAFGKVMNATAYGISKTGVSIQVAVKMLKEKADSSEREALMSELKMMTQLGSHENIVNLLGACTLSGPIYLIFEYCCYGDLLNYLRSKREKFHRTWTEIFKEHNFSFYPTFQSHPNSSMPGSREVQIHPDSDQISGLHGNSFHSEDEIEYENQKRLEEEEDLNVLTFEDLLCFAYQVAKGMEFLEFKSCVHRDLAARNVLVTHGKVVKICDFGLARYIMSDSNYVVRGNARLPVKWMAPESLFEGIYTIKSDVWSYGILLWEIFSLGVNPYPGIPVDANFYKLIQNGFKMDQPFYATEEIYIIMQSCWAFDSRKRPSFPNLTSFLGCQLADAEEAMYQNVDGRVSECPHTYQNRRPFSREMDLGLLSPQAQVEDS
Procedure: as §1, §2, §3, §4, §5, §6, §7, §8, §9, §10, §11, §12, §13, §14, §15, §16, §17, §18, §19, §20

BA/F3-FLT3-ITD + D835Y = molecular target: T4, BA/F3-FLT3-ITD + D835Y (Homo sapiens, UniProt P36888, D835Y, cells depend on it, form not given); assay: Engineered BA/F3 cell growth assay, FLT3 ITD/D835Y; assay type: cell-based, murine; settings: 3 d growth
T4 sequence (P36888 with tags, fused parts or gaps INS600HVDFREYEYD/D835Y): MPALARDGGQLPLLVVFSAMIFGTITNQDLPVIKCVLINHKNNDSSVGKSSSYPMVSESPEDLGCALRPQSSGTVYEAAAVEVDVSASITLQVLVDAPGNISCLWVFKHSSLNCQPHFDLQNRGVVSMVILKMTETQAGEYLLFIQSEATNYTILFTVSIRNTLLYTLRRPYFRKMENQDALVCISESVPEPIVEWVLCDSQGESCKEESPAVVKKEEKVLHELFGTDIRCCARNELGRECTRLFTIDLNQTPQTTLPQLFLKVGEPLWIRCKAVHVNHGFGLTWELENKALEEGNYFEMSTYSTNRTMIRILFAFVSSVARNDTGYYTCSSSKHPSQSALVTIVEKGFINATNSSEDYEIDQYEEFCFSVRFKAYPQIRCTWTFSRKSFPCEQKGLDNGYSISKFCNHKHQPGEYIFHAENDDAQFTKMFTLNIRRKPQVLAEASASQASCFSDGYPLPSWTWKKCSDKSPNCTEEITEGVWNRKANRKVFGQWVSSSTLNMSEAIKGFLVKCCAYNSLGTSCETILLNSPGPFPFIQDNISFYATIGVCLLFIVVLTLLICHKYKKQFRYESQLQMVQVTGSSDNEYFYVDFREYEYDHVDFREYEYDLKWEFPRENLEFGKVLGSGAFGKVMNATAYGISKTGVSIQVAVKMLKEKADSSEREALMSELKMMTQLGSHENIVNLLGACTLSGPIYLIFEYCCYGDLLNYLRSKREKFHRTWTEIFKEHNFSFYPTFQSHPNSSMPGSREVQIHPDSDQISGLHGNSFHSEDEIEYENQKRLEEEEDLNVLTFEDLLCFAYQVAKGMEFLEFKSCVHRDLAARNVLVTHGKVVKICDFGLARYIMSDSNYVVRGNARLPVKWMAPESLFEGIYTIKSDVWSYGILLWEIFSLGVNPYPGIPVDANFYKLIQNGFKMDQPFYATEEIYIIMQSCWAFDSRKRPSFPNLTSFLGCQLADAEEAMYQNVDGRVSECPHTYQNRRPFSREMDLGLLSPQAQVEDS
Method in brief: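 IC50 derived from CellTiter-Glo ATP luminescence after 3 days at 37 °C, 5% CO2, over eight 1:3 dilutions from 1 μM (0.2% DMSO final). Cells: IL-3-independent murine Ba/F3 expressing full-length FLT3 ITD/D835Y, 1×10^4 per well.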

[1] = tested on: MOLM-14 D835Y (endogenous FLT3 ITD and transfected FLT3 D835Y); assay: MOLM-14 D835Y cell proliferation assay (CellTiter-Glo); assay type: cell-based; settings: Homo sapiens, MOLM-14, 72 h; 3 d growth, GMean
Method in brief: (§21)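 Three-day proliferation at 37 °C/5% CO2 of FLT3-ITD MOLM-14 lines with D835Y or F691L mutation, seeded 1×10^4 per well. Compounds at eight points, top 1 μM final, 0.2% DMSO. ATP luminescence (CellTiter-Glo) gives IC50.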

[2] = tested on: MOLM-14 F691L (endogenous FLT3 ITD and transfected FLT3 F691L); assay: MOLM-14 F691L cell proliferation assay (CellTiter-Glo); assay type: cell-based; settings: Homo sapiens, MOLM-14, 72 h; 3 d growth, GMean
Method in brief: as §21

T1 sequence (P10721 26-976): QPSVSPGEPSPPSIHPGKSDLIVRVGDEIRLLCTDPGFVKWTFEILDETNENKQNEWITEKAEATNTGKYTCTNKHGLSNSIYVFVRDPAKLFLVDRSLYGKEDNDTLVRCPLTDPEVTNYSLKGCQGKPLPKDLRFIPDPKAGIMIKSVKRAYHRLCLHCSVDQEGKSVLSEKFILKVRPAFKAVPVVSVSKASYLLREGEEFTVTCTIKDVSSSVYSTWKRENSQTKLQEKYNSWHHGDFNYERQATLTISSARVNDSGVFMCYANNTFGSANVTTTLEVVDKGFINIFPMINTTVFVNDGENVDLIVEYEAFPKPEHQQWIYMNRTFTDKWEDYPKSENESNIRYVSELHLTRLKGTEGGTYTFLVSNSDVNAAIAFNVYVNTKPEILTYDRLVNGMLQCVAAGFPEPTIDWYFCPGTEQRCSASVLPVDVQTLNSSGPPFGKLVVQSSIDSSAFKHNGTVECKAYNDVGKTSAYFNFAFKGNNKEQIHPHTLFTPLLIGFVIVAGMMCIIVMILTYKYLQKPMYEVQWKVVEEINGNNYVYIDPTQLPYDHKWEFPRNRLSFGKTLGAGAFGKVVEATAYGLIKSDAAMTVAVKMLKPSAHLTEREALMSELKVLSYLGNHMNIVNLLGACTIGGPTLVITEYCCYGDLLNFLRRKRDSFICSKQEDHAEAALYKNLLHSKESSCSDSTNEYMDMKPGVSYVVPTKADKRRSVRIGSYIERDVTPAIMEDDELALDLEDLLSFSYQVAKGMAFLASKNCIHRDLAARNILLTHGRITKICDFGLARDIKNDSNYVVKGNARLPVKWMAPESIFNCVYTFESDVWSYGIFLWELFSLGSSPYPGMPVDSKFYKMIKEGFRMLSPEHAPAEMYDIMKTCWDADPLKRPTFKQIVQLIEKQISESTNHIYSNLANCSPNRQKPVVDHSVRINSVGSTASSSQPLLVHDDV

Row | SMILES | IC50 (c-KIT) | IC50 (FLT3-ITD) | IC50 (FLT3-D835Y) | GI50 (BA/F3-FLT3-ITD + D835Y) | IC50 [1] | IC50 [2]
1 | COc1ncc(NC(=O)Cc2ccc(-c3cnc(Nc4cn[nH]c4)nc3)c(F)c2)cc1C(F)(F)F [Compound P-0028, 2-[3-fluoro-4-[2-(1H-pyrazol-4-ylamino)pyrimidin-5-yl]phenyl]-N-[6-methoxy-5-(trifluoromethyl)-3-pyridyl]acetamide] | 0.0001 to 10 µM | 0.0001 to 10 µM | 0.0001 to 10 µM |  |  | 
2 | CCC(=O)c1c[nH]c2ncc(-c3ccc(CC(=O)Nc4cnc(OC)c(C(F)(F)F)c4)c(F)c3)cc12 [Compound P-0049, 2-[2-fluoro-4-(3-propanoyl-1H-pyrrolo[2,3-b]pyridin-5-yl)phenyl]-N-[6-methoxy-5-(trifluoromethyl)-3-pyridyl]acetamide] | 0.0001 to 10 µM |  |  | 0.0001 to 10 µM | 0.0001 to 10 µM | 0.0001 to 10 µM
3 | O=C(Cc1ccc(-c2cnc3[nH]c(C4CC4)cc3c2)cc1F)Nc1cncc(C(F)(F)F)c1 [Compound P-0080, 2-(4-(2-cyclopropyl-1H-pyrrolo[2,3-b]pyridin-5-yl)-2-fluorophenyl)-N-(5-(trifluoromethyl)pyridin-3-yl)acetamide] | 0.0001 to 10 µM | 0.0001 to 10 µM | 0.0001 to 10 µM |  |  | 
4 | Cn1cc(Nc2ncc(-c3ccc(CC(=O)Nc4cc(F)c(F)cn4)cc3)cn2)cn1 [Compound P-0163, N-(4,5-difluoro-2-pyridyl)-2-[4-[2-[(1-methylpyrazol-4-yl)amino]pyrimidin-5-yl]phenyl]acetamide] | 0.0001 to 10 µM | 0.0001 to 10 µM |  |  |  | 
5 | COc1ncc(NC(=O)Cc2ccc(-c3cnc4[nH]nc(F)c4c3)cc2)cc1C(F)(F)F [Compound P-0245, 2-[4-(3-fluoro-1H-pyrazolo[3,4-b]pyridin-5-yl)phenyl]-N-[6-methoxy-5-(trifluoromethyl)-3-pyridyl]acetamide] | 0.0001 to 10 µM |  | 0.0001 to 10 µM |  |  | 
